Peptide text beside a SMILES is read from it. * marks the point of attachment. Myristoyl = CCCCCCCCCCCCCC(=O)*
Legend:
[1] = test system: CD31, CCR10, CCL28, IL-6, IL-4, HGF mRNA; assay: Real-time RT-PCR of mRNA levels in WT mouse dermal wounds; type: in vivo, WT C57BL/6 mice
Procedure: (§1) Real-Time RT-PCR. Total cellular RNA from mouse skin wounds was extracted using nucleic acid extraction reagent sold under the tradename TRIZOL®. mRNA expression of different genes was examined by real-time RT-PCR that employed a SYBR Green PCR mix. Relative gene expression was determined by the ΔΔCt method based on GAPDH levels as described previously (Chen, et al. (2013) J. Immunol. 190:5256-5266).

cell viability = assay: Cell viability; type: cell-based
CCR10-eNOS interaction [2] = target: T1, CCR10-eNOS interaction (Homo sapiens, UniProt P46092); assay: Co-IP of CCR10-eNOS interaction in HUVECs stimulated with A23187; type: cell-based; conditions: endothelial cells (HUVECs), pretreatment 50 μM, 5 μM A23187 for 5 minutes, vs control peptide
T1 construct: host or cells: HUVEC (primary human umbilical vein endothelial cells)
T1 sequence (P46092 1-362): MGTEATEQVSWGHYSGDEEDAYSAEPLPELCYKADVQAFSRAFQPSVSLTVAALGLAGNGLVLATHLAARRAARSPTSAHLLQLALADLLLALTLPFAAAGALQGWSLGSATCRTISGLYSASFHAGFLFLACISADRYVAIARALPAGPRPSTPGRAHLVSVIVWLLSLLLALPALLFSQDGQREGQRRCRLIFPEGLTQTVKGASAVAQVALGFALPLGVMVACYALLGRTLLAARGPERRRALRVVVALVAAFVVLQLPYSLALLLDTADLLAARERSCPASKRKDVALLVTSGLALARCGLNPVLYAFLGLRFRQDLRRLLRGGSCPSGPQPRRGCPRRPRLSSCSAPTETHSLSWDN
Procedure: Immunoblot and Co-Immunoprecipitation (Co-IP). After serum starvation, inhibitors were added 45 minutes prior to stimulation for indicated times at 37° C., and cells were then collected and lysed for western blot analysis. After probing for p-eNOS (Ser1177), p-p85 (Tyr458), p-Src (Tyr 416), and p-ERK (T202/Y204), the same blots were stripped and re-probed for total proteins mentioned above. For detection of CCL28-induced protein levels of β-catenin and Bcl-2, near-confluent endothelial cells were incubated with 500 ng/ml CCL28 for 24 hours in EGM-2 medium containing 1% FBS.
(§2) Co-IP Experiments, cells or mouse wounds were collected after treatment, and lysed in 2% ODG in Tris buffer. The homogenates were further prepared for Co-IP experiments as described in the art (Chen, et al. (2018) Mol. Biol. Cell 29(10):1190-1202; Chen, et al. (2020) FASEB J. 34(4):5838-5850; Chen, et al. (2015) Ann. Rheum. Dis. 74:1898-1906).
Therefore, the effect of inhibition of CCR10-eNOS interaction was investigated using a panel of cell-permeable peptides based on the sequence of the predicted interaction domain on eNOS. Similar peptides have been described in determining the solution structure of calmodulin bound to the target peptide of eNOS (Piazza, et al. (2014) Biochemistry 53(8):1241-9; Piazza, et al. (2016) Biochemistry 55(42):5962-71). First, myristoylated 20 amino acid peptide (491-[…]-510 (P1); SEQ ID NO:61) was synthesized based on the sequence of human eNOS (which is conserved in mouse eNOS). […] It was subsequently determined whether truncated versions of the CBD-derived peptide would have the same effect.

CCR10-eNOS interaction [3] = target: T2, CCR10-eNOS interaction (Mus musculus, UniProt Q9JL21); assay: Co-IP of CCR10-eNOS interaction in WT mouse wounds; type: in vivo, WT C57BL/6 mice; conditions: day 7, 50 μM
T2 construct: cells or mouse wounds were collected after treatment, and lysed in 2% ODG in Tris buffer; tissue Jackson Laboratory; host or cells: dorsal skin wounds of WT C57BL/6 or db/db mice
T2 sequence (Q9JL21 1-362): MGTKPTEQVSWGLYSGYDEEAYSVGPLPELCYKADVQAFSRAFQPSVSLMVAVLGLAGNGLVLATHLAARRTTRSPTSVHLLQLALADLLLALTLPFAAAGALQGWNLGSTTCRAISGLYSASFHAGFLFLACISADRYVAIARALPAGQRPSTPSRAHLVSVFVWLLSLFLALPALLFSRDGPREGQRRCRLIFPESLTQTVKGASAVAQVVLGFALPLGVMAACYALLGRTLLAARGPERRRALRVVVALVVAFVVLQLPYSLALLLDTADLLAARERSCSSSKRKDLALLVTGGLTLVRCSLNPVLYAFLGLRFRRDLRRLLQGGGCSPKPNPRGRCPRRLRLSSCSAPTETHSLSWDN
From the text: as §2

[4] = test system: CCL28, IL-6, TNF-α, IL-1β, CCR10, VEGF, IL-13, IL-4, eNOS, CD31, Flk-1, VE-cadherin; assay: ELISA and real-time RT-PCR of inflammatory factors and EC markers in db/db mouse wounds; type: in vivo, db/db mice
Procedure: as §1
ELISA Measurement. Mouse skin wounds were collected, lysed, and prepared for ELISA measurement of mouse CCL28 and IL-6 according to manufacturer's instructions.
It was investigated whether topical application of Myr-CBD7 affects these factors in db/db mice known to play important roles in the healing processes. Mouse wounds on day 3 (Inflammation Phase) and day 12 (Proliferation Phase) were collected and inflammatory factor levels were determined by ELISA and real-time RT-PCR.
On day 12 after Myr-CBD7 treatment, elevated levels of eNOS/NO were observed as well as enhanced angiogenesis in mouse wounds. Furthermore, Myr-CBD7 treatment lead to elevated levels of VEGF, anti-inflammatory cytokines IL-13 and IL-4 (M2 markers), as well as EC markers eNOS, CD31, Flk-1 and VE-cadherin in mouse wounds.

CCCCCCCCCCCCCC(=O)N[C@@H](CCCCN)C(=O)N[C@H](C(=O)N[C@@H](CO)C(=O)N[C@@H](C)C(=O)N[C@@H](CO)C(=O)N[C@@H](CC(C)C)C(=O)N[C@@H](CCSC)C(=O)O)[C@@H](C)CC [Myr-CBD7, myr-KISASLM] (Myristoyl-KISASLM-OH)
CCL28 mRNA level ([1]; wounds day 7): reduction | CCR10 mRNA level ([1]; wounds day 7): did not change | CD31 mRNA level ([1]; wounds day 7): elevated | IL-4 mRNA level ([1]; wounds day 7): enhancing | IL-6 mRNA level ([1]; wounds day 7): reduction | increase of hepatocyte growth factor (HGF) mRNA level ([1]; wounds day 7, non-significant): 35% | concentration without adversely affecting cell viability (cell viability): up to 100 μM | CCR10-eNOS interaction (Co-IP) (CCR10-eNOS interaction [2]): significant reduction | CCR10-eNOS interaction (Co-IP) (CCR10-eNOS interaction [2]; listed as P4): completely blocked | CCR10-eNOS interaction in wounds (Co-IP) (CCR10-eNOS interaction [3]): reduced | level of CCR10 ([4]; day 3, compared to control peptide): reduced | mRNA level of IL-6 ([4]; day 3 wounds): reduced | protein level of CCL28 ([4]; day 3 wounds, ELISA): significantly reduced | protein level of IL-6 ([4]; day 3 wounds, ELISA): significantly reduced | protein level of TNF-α ([4]; day 3 wounds, ELISA): significantly reduced | level of EC marker CD31 ([4]; day 12 wounds): elevated | level of EC marker Flk-1 ([4]; day 12 wounds): elevated | level of EC marker VE-cadherin ([4]; day 12 wounds): elevated | level of EC marker eNOS ([4]; day 12 wounds): elevated | level of IL-4 ([4]; day 12 wounds): elevated | level of IL-13 ([4]; day 12 wounds): elevated | level of VEGF ([4]; day 12 wounds): elevated

— patent publication US20220265759A1, “COMPOSITION AND METHOD FOR PROMOTING WOUND HEALING” (THE BOARD OF TRUSTEES OF THE UNIVERSITY OF ILLIOIS, priority 2019, published 2022)
